Results: ChEMBL document CHEMBL1139676, “Anti-atherosclerotic and anti-inflammatory activities of catecholic xanthones and flavonoids isolated from Cudrania tricuspidata” (Bioorg Med Chem Lett, 2006)
Values belong to the molecule of their own block, whether it stands above or below them. The source made the active and inactive calls. The rule behind the calls is not given here.

Legend:
Plasma = test: Antioxidant activity against human plasma LDL oxidation by TBARS assay; format: functional, cell-free
[1] = biological target: T1, Sterol O-acyltransferase 2 (Homo sapiens, UniProt O75908); test: Inhibition of human ACAT2 expressed in Hi5 cells; set-up: species or system BTI-TN-5B1-4
T1 sequence (O75908 whole entry): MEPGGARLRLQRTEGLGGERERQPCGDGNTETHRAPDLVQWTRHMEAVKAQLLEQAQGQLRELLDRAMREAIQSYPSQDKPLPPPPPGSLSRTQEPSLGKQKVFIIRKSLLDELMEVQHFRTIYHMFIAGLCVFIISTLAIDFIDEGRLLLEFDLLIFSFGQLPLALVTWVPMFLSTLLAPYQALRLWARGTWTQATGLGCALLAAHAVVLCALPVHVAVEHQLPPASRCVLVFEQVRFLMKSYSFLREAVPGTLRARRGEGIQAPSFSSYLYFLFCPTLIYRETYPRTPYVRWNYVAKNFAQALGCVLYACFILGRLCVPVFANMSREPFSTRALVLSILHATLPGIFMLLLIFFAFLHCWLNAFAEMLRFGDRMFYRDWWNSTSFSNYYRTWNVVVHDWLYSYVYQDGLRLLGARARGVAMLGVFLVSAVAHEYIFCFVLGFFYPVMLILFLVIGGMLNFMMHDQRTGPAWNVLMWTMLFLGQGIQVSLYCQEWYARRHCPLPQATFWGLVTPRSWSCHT

[2] = biological target: T2, Sterol O-acyltransferase 1 (Homo sapiens) (UniProt P35610); test: (§1) Inhibition of human ACAT1 expressed in Hi5 cells; settings: BTI-TN-5B1-4
T2 sequence (whole entry): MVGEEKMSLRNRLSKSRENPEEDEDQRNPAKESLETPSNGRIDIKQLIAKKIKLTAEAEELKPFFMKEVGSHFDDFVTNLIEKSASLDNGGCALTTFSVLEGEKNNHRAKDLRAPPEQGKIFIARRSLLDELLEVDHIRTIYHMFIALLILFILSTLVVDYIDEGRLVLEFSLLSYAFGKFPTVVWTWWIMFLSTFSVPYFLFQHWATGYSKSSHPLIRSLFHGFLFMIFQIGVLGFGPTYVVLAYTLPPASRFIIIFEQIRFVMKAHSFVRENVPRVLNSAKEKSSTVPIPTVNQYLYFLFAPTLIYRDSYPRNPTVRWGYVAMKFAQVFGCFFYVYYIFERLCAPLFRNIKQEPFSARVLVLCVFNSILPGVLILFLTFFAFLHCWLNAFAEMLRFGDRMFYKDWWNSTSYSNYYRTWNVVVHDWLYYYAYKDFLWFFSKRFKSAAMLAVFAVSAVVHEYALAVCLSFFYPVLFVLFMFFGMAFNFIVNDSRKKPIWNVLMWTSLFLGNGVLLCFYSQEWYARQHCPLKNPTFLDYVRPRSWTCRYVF

RAW [3] = test: Inhibition of LPS-induced NO production in mouse RAW 264.7 cells at 50 uM after 18 hrs; format: functional, cell-based
RAW [4] = test: Inhibition of LPS-induced NO production in mouse RAW 264.7 cells after 18 hrs; format: functional, cell-based
RAW [5] = test: Inhibition of LPS-induced iNOS protein expression in mouse RAW 264.7 cells at 5 uM; format: functional, cell-based
RAW [6] = test: Effect on cell viability in mouse RAW 264.7 cells at 80 uM by MTT method; format: functional, cell-based
RAW [7] = test: Inhibition of LPS-induced iNOS protein expression in mouse RAW 264.7 cells at 10 uM; format: functional, cell-based
RAW [8] = test: Inhibition of LPS-induced iNOS protein expression in mouse RAW 264.7 cells at 20 uM; format: functional, cell-based
RAW [9] = test: Inhibition of LPS-induced iNOS protein expression in mouse RAW 264.7 cells at 50 uM; format: functional, cell-based
[10] = biological target: T3, Sterol O-acyltransferase 1 (Homo sapiens, UniProt P35610); test: as §1; set-up: species or system BTI-TN-5B1-4
T3 sequence (P35610 whole entry): T2 sequence (whole entry)

RAW [11] = test: Effect on cell viability in mouse RAW 264.7 cells at 50 uM by MTT method; format: functional, cell-based

SMILES: C=CC(C)(C)c1c(O)cc(O)c2c(=O)c3c(CC=C(C)C)c(OC)c(O)cc3oc12 [CUDRAXANTHONE C]
Activity (Plasma): inactive
IC50 [1]: 19.2 µM

SMILES: C=CC(C)(C)c1c(OC)cc(O)c2c(=O)c3ccc(O)c(O)c3oc12 [ISOCUDRANIAXANTHONE B]
IC50 [1]: 133 µM

SMILES: CC(C)=CCc1cc([C@@H]2CC(=O)c3c(cc(O)c(CC=C(C)C)c3O)O2)c(O)cc1O
Activity [2]: inactive
IC50 [1]: 89.6 µM
Activity (RAW [3]): Active
Activity (RAW [4]): Active
Activity (RAW [5]): Active
Activity (RAW [6]): inactive
Activity (RAW [7]): Active
Activity (RAW [8]): Active
Activity (RAW [9]): Active

SMILES: C=CC(C)(C)c1c(O)cc2oc3c(CC=C(C)C)c(O)c(O)cc3c(=O)c2c1O [CUDRAXANTHONE L]
IC50 [1]: 74.4 µM

SMILES: CC(C)=CCc1c(-c2ccc(O)cc2O)oc2cc3c(c(O)c2c1=O)C=CC(C)(C)O3 [CUDRAFLAVONE B]
Activity [2]: inactive
IC50 [1]: 41.6 µM
Activity (RAW [4]): Dose-dependent effect
Activity (RAW [5]): Active
Activity (RAW [6]): inactive
Activity (RAW [7]): Active
Activity (RAW [8]): Active
Activity (RAW [9]): Active

SMILES: CC(C)(O)CCc1c(O)cc(O)c2c1O[C@H](c1cc3c(cc1O)OC(C)(C)C=C3)CC2=O
IC50 [1]: 44.8 µM
Activity (RAW [3]): Active
Activity (RAW [4]): Active
Activity (RAW [5]): Active
Activity (RAW [11]): inactive
Activity (RAW [7]): Active
Activity (RAW [8]): Active
Activity (RAW [9]): Active

SMILES: CC(C)=CCc1c(O)c(O)cc2c(=O)c3c(O)c4c(cc3oc12)OC(C)C4(C)C (configuration not stated) [CUDRAXANTHONE M]
IC50 [1]: 23.2 µM

SMILES: C=CC(C)(C)c1c(O)c(CC=C(C)C)c2oc3cc(O)c(O)cc3c(=O)c2c1O [MACLURAXANTHONE B]
IC50 [1]: 112 µM

More lines, in order of falling IC50 [1], values ahead:

Activity [2]: inactive
IC50 [1]: 77.6 µM
SMILES: CC1(C)C=Cc2c(cc3oc(-c4ccc(O)cc4O)cc(=O)c3c2O)O1

IC50 [1]: 75.2 µM
SMILES: C=CC(C)(C)c1c(OC)cc(O)c2c(=O)c3c(CC=C(C)C)c(O)c(O)cc3oc12 [CUDRAXANTHONE D]

IC50 [10]: 40 µM
IC50 [1]: 28.8 µM
SMILES: C=CC(C)(C)c1c(O)cc(O)c2c(=O)c3cc(O)c4c(c3oc12)C=CC(C)(C)O4

IC50 [1]: 24.8 µM
SMILES: CC(C)=CCc1c(O)cc2c(c1O)C(=O)C[C@@H](c1cc3c(cc1O)OC(C)(C)C=C3)O2 [CUDRAFLAVANONE A]
